Laboratory results from US10130715B2 (priority 2013, dated 2018).
Read-outs that look alike come from different tables or passages of the source.

Columns and labels:
[1] = Pilot study: plasma β-alanine and net retention after oral ingestion (GC-MS); format: in vivo, human
Protocol: Each subject completed three trials, labeled “A”, “B”, and “C” using a Latin square design (i.e. subject 1 completed trials in ABC order, subject 2 completed trials in BCA order, and subject 3 completed trials in CAB order). […] Blood samples were drawn into lithium heparin tubes at baseline (time 0), 30 min, 1 hr, 2 hr, 3 hr, 4 hr post ingestion, spun in a clinical centrifuge for 15 minutes, and processed to obtain plasma.

[2] = cited from earlier work
individuals = conditions: human, in vivo
Description: A minimum clinically significant difference in VAS rating for pain or paraesthesia appears to range from 13 mm to 16 mm with a 95% confidence interval. (See e.g., Gallagher, et al., Am J Emerg Med. 2002; 20(4):287-90; Bouhassira, et al., Pain. 2004; 108(3):248-57; Poliakov, et al. Eur J Pain. 2011 November; 15(10):1015-22; and Eisenberg, et al. Eur J Pain. 1998; 2(4):321-327). VAS rating instruments have also been deemed specific and sensitive to detect the effects of an intervention on paraesthesia and neuropathic pain.

NCCC(=O)O [β-alanine, 3-Aminopropanoic acid]
Net Loss (uMol), Mean (SD) ([1]; Mean (SD) of 3 subjects): 9174.5 (862.96) uMol
Net Loss ([1]; Subject 1, 0-4 hr collection): 10167.5 µmol
Net Loss ([1]; Subject 2, 0-4 hr collection): 8606.6 µmol
Net Loss ([1]; Subject 3, 0-4 hr collection): 8749.3 µmol
severity of paraesthesia ([2]; oral doses of 40 mg/kg or higher): moderate-to-severe
severity of paraesthesia ([2]; oral doses of 40 mg/kg): severe
severity of paraesthesia ([2]; oral, 10 mg/kg): relatively mild
anchored 100 mm VAS scores for paraesthesia (individuals): 60 mm-90 mm
